In US8377884B2, “Variants of C-type natriuretic peptides” (Biomarin Pharmaceutical Inc., priority 2007, dated 2013) one finds cGMP response relative to 1 uM CNP22 (%) data, which are given here for ten molecules.

Where two headings read alike, the source gives them in different places. Bridge positions count the residues as written; N and C are the ends. Square brackets hold non-standard residues; d marks the D form. Peptide text beside a SMILES is read from it. tBuAla = CC(C)(C)C[C@H](N)C(=O)O; Cit = NC(=O)NCCC[C@H](N)C(=O)O

This test deals with T1, NPR-B (Mus musculus, UniProt Q6VVW5).
T1 construct: Murine NIH3T3 cells express endogenously the CNP signaling receptor, NPR-B; endogenous in cells; host or cells: NIH3T3 (murine fibroblasts)
T1 sequence (Q6VVW5 17-1047): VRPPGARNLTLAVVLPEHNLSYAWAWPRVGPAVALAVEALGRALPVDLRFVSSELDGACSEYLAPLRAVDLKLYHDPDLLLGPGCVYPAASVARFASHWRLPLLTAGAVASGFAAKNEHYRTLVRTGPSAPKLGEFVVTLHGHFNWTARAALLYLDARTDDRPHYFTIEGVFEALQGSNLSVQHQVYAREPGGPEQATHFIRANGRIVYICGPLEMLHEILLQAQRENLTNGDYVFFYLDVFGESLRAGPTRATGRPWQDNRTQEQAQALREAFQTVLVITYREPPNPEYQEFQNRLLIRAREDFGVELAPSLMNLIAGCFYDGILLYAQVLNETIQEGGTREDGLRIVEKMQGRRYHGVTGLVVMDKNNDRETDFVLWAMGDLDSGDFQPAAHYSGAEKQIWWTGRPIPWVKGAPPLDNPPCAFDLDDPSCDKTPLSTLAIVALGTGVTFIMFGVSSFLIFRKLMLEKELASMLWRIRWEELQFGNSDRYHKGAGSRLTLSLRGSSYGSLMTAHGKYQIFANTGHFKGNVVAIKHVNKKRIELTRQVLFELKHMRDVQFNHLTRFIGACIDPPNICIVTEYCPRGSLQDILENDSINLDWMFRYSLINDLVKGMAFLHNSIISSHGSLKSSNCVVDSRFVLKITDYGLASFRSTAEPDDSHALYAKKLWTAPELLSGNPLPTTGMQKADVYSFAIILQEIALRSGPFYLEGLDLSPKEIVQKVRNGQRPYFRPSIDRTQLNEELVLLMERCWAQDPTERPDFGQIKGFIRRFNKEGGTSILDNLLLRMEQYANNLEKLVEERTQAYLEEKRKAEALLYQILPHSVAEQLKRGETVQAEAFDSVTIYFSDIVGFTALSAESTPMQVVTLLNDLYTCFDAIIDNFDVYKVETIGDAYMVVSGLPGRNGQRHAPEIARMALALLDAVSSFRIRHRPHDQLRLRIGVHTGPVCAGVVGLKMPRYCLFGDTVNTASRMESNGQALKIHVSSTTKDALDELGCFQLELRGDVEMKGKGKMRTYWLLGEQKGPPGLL
The test can be described thus: Stimulation of cGMP production in NIH3T3 cells. The settings on record: for cGMP response relative to 1 uM CNP22 (%) at 0.01 µM: read-out: cGMP Response rel. to 1 uM CNP22, 10 nM; for cGMP response relative to 1 uM CNP22 (%) at 1 µM: read-out: cGMP Response rel. to 1 uM CNP22, 1 uM. In kind it is cell-based, Murine.

Where [1] appears, read: NIH3T3 cells, 10 nM natriuretic peptide, normalized to cell number and cGMP production with 1 uM wtCNP22.
Where [2] appears, read: NIH3T3 cells, 1 uM natriuretic peptide, normalized to cell number and cGMP production with 1 uM wtCNP22.

As to `CC[C@H](C)[C@@H]1NC(=O)[C@H](CCCNC(=N)N)NC(=O)[C@H](CC(=O)O)NC(=O)[C@H](CC(C)C)NC(=O)[C@H](CCCCN)NC(=O)[C@H](CC(C)C)NC(=O)[C@H](C(C)C)NC(=O)[C@H](Cc2ccccc2)NC(=O)[C@@H](NC(=O)CNC(=O)[C@H](CCCNC(=N)N)NC(=O)[C@H](CO)NC(=O)[C@H](CC(C)C)NC(=O)CN)CSSC[C@@H](C(=O)O)NC(=O)CNC(=O)[C@H](CC(C)C)NC(=O)CNC(=O)[C@H](CO)NC(=O)[C@H](CCSC)NC(=O)[C@H](CO)NC(=O)CNC1=O` [AA] (H-GLSRGCFVLKLDRIGSMSGLGC-OH; disulfide 6-22 (inferred); N-terminus and C-terminus assumed), the cGMP response relative to 1 uM CNP22 (%) at 0.01 µM under setting [1] was determined as 3%. For the same molecule, the cGMP response relative to 1 uM CNP22 (%) at 1 µM under setting [2] was determined as 25%.
For `CC[C@H](C)[C@@H]1NC(=O)[C@H](CCCNC(=N)N)NC(=O)[C@H](CC(=O)O)NC(=O)[C@H](CC(C)C)NC(=O)[C@H](CCCCN)NC(=O)[C@H](CC(C)C)NC(=O)[C@H](CO)NC(=O)[C@H](Cc2ccccc2)NC(=O)[C@@H](NC(=O)CNC(=O)[C@H](CCCNC(=N)N)NC(=O)[C@H](CO)NC(=O)[C@H](CC(C)C)NC(=O)CN)CSSC[C@@H](C(=O)O)NC(=O)CNC(=O)[C@H](CC(C)C)NC(=O)CNC(=O)[C@H](CO)NC(=O)[C@H](CCSC)NC(=O)[C@H](CO)NC(=O)CNC1=O` [AB] (H-GLSRGCFSLKLDRIGSMSGLGC-OH; disulfide 6-22 (inferred); N-terminus and C-terminus assumed), in that order: 26 ± 26% and 86 ± 17%.
In the same order, the values of `CC[C@H](C)[C@@H]1NC(=O)[C@H](CCCNC(=N)N)NC(=O)[C@H](CC(=O)O)NC(=O)[C@H](CC(C)C)NC(=O)[C@H](CCCCN)NC(=O)[C@H]([C@@H](C)O)NC(=O)CNC(=O)[C@H](Cc2ccccc2)NC(=O)[C@@H](NC(=O)CNC(=O)[C@H](CCCNC(=N)N)NC(=O)[C@H](CO)NC(=O)[C@H](CC(C)C)NC(=O)CN)CSSC[C@@H](C(=O)O)NC(=O)CNC(=O)[C@H](CC(C)C)NC(=O)CNC(=O)[C@H](CO)NC(=O)[C@H](CCSC)NC(=O)[C@H](CO)NC(=O)CNC1=O` [AD] (H-GLSRGCFGTKLDRIGSMSGLGC-OH; disulfide 6-22) are 4% and 68%.
On to `CC[C@H](C)[C@@H]1NC(=O)[C@H](CCCNC(=N)N)NC(=O)[C@H](CC(=O)O)NC(=O)[C@H](CC(C)C)NC(=O)[C@H](CCCCN)NC(=O)[C@H](CC(C)C)NC(=O)CNC(=O)[C@H](Cc2ccccc2)NC(=O)[C@@H](NC(=O)CNC(=O)[C@H](CCCNC(=N)N)NC(=O)[C@H](CO)NC(=O)[C@H](CC(C)C)NC(=O)CN)CSSC[C@@H](C(=O)O)NC(=O)CNC(=O)[C@H](CC(C)C)NC(=O)CNC(=O)[C@H](CO)NC(=O)[C@H](CCSC)NC(=O)[C@H](CO)NC(=O)[C@H](CCCNC(=N)N)NC1=O` [AE] (H-GLSRGCFGLKLDRIRSMSGLGC-OH; disulfide 6-22 (inferred); N-terminus and C-terminus assumed), for which, for the setting “NIH3T3, […]”, the cGMP response relative to 1 uM CNP22 (%) at 0.01 µM is 0.3% and the cGMP response relative to 1 uM CNP22 (%) at 1 µM came to 0.3%.
As to `CC[C@H](C)[C@@H]1NC(=O)[C@H](CCCNC(=N)N)NC(=O)[C@H](CC(=O)O)NC(=O)[C@H](CC(C)C)NC(=O)[C@H](CCCCN)NC(=O)[C@H](CC(C)C)NC(=O)CNC(=O)[C@H](Cc2ccccc2)NC(=O)[C@@H](NC(=O)CNC(=O)[C@H](CCCNC(=N)N)NC(=O)[C@H](CO)NC(=O)[C@H](CC(C)C)NC(=O)CN)CSSC[C@@H](C(=O)O)NC(=O)CNC(=O)[C@H](CC(C)C)NC(=O)CNC(=O)[C@H](CO)NC(=O)[C@H](CCSC)NC(=O)[C@H](CO)NC(=O)[C@H](CCCNC(N)=O)NC1=O` [AF] (H-GLSRGCFGLKLDRI[Cit]SMSGLGC-OH; disulfide 6-22 (inferred); N-terminus and C-terminus assumed), under “NIH3T3, […]”, the cGMP response relative to 1 uM CNP22 (%) at 0.01 µM was found to be 1.4% and the cGMP response relative to 1 uM CNP22 (%) at 1 µM worked out at 2%.
On to `CC[C@H](C)[C@@H]1NC(=O)[C@H](CCCNC(=N)N)NC(=O)[C@H](CC(=O)O)NC(=O)[C@H](CC(C)C)NC(=O)[C@H](CCCCN)NC(=O)[C@H](CC(C)C)NC(=O)CNC(=O)[C@H](Cc2ccccc2)NC(=O)[C@@H](NC(=O)CNC(=O)[C@H](CCCNC(=N)N)NC(=O)[C@H](CO)NC(=O)[C@H](CC(C)C)NC(=O)CN)CSSC[C@@H](C(=O)O)NC(=O)CNC(=O)[C@H](CC(C)C)NC(=O)CNC(=O)[C@H](CO)NC(=O)[C@H](C(C)C)NC(=O)[C@H](CO)NC(=O)CNC1=O` [AG] (H-GLSRGCFGLKLDRIGSVSGLGC-OH; disulfide 6-22 (inferred); N-terminus and C-terminus assumed), for which, where the note is “NIH3T3, […]”, the cGMP response relative to 1 uM CNP22 (%) at 0.01 µM was determined as 10% and the cGMP response relative to 1 uM CNP22 (%) at 1 µM came to 65%.
Regarding `CC[C@H](C)[C@@H]1NC(=O)[C@H](CCCNC(=N)N)NC(=O)[C@H](CC(=O)O)NC(=O)[C@H](CC(C)C)NC(=O)[C@H](CCCCN)NC(=O)[C@H](CC(C)C)NC(=O)CNC(=O)[C@H](Cc2ccccc2)NC(=O)[C@@H](NC(=O)CNC(=O)[C@H](CCCNC(=N)N)NC(=O)[C@H](CO)NC(=O)[C@H](CC(C)C)NC(=O)CN)CSSC[C@@H](C(=O)O)NC(=O)CNC(=O)[C@H](C(C)C)NC(=O)CNC(=O)[C@H](CO)NC(=O)[C@H](CCSC)NC(=O)[C@H](CO)NC(=O)CNC1=O` [AJ] (H-GLSRGCFGLKLDRIGSMSGVGC-OH; disulfide 6-22 (inferred); N-terminus and C-terminus assumed), the cGMP response relative to 1 uM CNP22 (%) at 0.01 µM under setting [1] was 0.2%. Besides, the cGMP response relative to 1 uM CNP22 (%) at 1 µM under setting [2] was 8%.
For `CC[C@H](C)[C@@H]1NC(=O)[C@H](CCCNC(=N)N)NC(=O)[C@H](CC(=O)O)NC(=O)[C@H](CC(C)C)NC(=O)[C@H](CCCCN)NC(=O)[C@H](CC(C)C)NC(=O)CNC(=O)[C@H](Cc2ccccc2)NC(=O)[C@@H](NC(=O)CNC(=O)[C@H](CCCNC(=N)N)NC(=O)[C@H](CO)NC(=O)[C@H](CC(C)C)NC(=O)CN)CSSC[C@@H](C(=O)O)NC(=O)CNC(=O)[C@H](CC(C)(C)C)NC(=O)CNC(=O)[C@H](CO)NC(=O)[C@H](CCSC)NC(=O)[C@H](CO)NC(=O)CNC1=O` [AK] (H-GLSRGCFGLKLDRIGSMSG[tBuAla]GC-OH; disulfide 6-22 (inferred); N-terminus and C-terminus assumed), in that order: 1% and 21%.
With `CC[C@H](C)[C@@H]1NC(=O)[C@H](CCCNC(=N)N)NC(=O)[C@H](CC(=O)O)NC(=O)[C@H](CC(C)C)NC(=O)[C@H](CCCCN)NC(=O)[C@H](CC(C)C)NC(=O)CNC(=O)[C@H](Cc2ccccc2)NC(=O)[C@@H](N)CSSC[C@@H](C(=O)O)NC(=O)CNC(=O)[C@H](CC(C)C)NC(=O)CNC(=O)[C@H](CO)NC(=O)[C@H](CCSC)NC(=O)[C@H](CO)NC(=O)CNC1=O` [AX] (H-CFGLKLDRIGSMSGLGC-OH; disulfide 1-17 (inferred); N-terminus and C-terminus assumed), the cGMP response relative to 1 uM CNP22 (%) at 0.01 µM under setting [1] is 18%. Also, the cGMP response relative to 1 uM CNP22 (%) at 1 µM under setting [2] was 69%.
For `CC[C@H](C)[C@@H]1NC(=O)[C@H](CCCNC(=N)N)NC(=O)[C@H](CC(=O)O)NC(=O)[C@H](CC(C)C)NC(=O)[C@H](CCCNC(N)=O)NC(=O)[C@H](CC(C)C)NC(=O)CNC(=O)[C@H](Cc2ccccc2)NC(=O)[C@@H](NC(=O)CNC(=O)[C@H](CCCNC(=N)N)NC(=O)[C@H](CO)NC(=O)[C@H](CC(C)C)NC(=O)CN)CSSC[C@@H](C(=O)O)NC(=O)CNC(=O)[C@H](CC(C)C)NC(=O)CNC(=O)[C@H](CO)NC(=O)[C@H](CCSC)NC(=O)[C@H](CO)NC(=O)CNC1=O` [BF] (H-GLSRGCFGL[Cit]LDRIGSMSGLGC-OH; disulfide 6-22 (inferred); N-terminus and C-terminus assumed), in that order: 6% and 33%.
